Laboratory results taken from US10323026B2, “Heterocyclic compound” (Takeda Pharmaceutical Company Limited, priority 2016, dated 2019).
Where two headings read alike, the source gives them in different places.

Tests used:
[1] = molecular target: T1, His-hMAGL (recombinant polyhistidine tagged human MAGL protein) (Homo sapiens, UniProt Q99685); experiment: Measurement of MAGL inhibitory activity (RapidFire-mass spectrometry of arachidonic acid produced from 2-arachidonylglycerol); type: biochemical; settings: read-out: % inhibition (10 μM)
T1 construct: polyhistidine (His) (N); made in house; host or cells: E. coli BL21(DE3)
T1 sequence (Q99685 1-303): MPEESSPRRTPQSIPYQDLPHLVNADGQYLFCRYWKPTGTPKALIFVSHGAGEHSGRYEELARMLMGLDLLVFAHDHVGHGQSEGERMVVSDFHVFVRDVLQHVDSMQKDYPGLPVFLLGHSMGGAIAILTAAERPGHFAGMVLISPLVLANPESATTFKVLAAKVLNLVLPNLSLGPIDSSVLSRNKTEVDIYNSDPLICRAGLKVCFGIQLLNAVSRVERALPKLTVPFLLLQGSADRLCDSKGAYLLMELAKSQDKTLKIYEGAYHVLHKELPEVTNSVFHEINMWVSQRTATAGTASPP
In short: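 After quenching with acetonitrile containing 3 μM arachidonic acid-d8, the arachidonic acid formed was measured by online SPE RapidFire-MS/MS in negative SRM mode and corrected against the d8 standard. Inhibition (%) was calculated relative to compound-free and enzyme-free groups.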

[2] = system: intracerebral 2-AG and arachidonic acid; experiment: Measurement of intracerebral 2-AG and arachidonic acid concentrations; type: in vivo, mouse (C57BL/6J); settings: for 2-AG concentration / arachidonic acid concentration: cerebrum of male C57BL/6J mice, 3 mg/kg body weight by gavage, isolated 1 hour after administration; for 2-AG concentration: control 9.9; for arachidonic acid concentration: control 163.5; for migration into brain / intracerebral 2-AG concentration compared to control / intracerebral arachidonic acid concentration compared to control: oral administration to C57BL/6J mice; for intracerebral 2-AG concentration compared to control / intracerebral arachidonic acid concentration compared to control: result in words
Procedure: As the mouse, 8-week-old male C57BL/6J mice (CLEA Japan, Inc.) were used (6 mice/group). Administration solutions were prepared by suspending the test compounds (compound 1 (compound of Example 6), compound 2 (compound of Example 93) and compound 3 (compound of Example 97)) in 0.5% methylcellulose solution (Wako Pure Chemical Industries, Ltd.). The dose of the test compound was prepared to be 3 mg/kg body weight/10 mL. The test compounds were administered by gavage at 3 mg/kg body weight. The cerebrum was isolated after the administration of the test compound (isolation time after the administration of the test compound is shown in Table 3), and the cerebrum hemisphere was extracted. The obtained cerebrum hemisphere was frozen on dry ice, and the frozen tissue weight was measured.
The cerebral tissue weight was measured, and cerebral tissue was homogenized with 4-fold (v/w) of isopropanol (IPA), and double diluted with IPA. To the diluted sample (200 μL) was added internal standard solution (5 μL) ([5,6,8,9,11,12,14,15-D8]-(5Z,8Z,11Z,14Z)5,8,11,14-eicosatetraenoic acid (AA-d8, 0.5 nmol/mL IPA) and [5,6,8,9,11,12,14,15-D8]-(5Z,8Z,11Z,14Z)-5,8,11,14-eicosatetraenoyl-2-glycerol ester (2-AG-d8, 0.5 nmol/mL IPA)), and the mixture was centrifuged at 15000 rpm for 5 min. The supernatant was injected to liquid chromatographymass spectrometer to perform quantitative analysis.
For liquid chromatography, Shimadzu LC20A system (Shimadzu Corporation) was used. The separation was performed by gradient elution method with mobile phase A (10 mmol/L HCOONH4/HCOOH (100:0.2, v/v)) and mobile phase B (ethanol/IPA (3:2, v/v)) using Shim-pack XR-ODS (2.2 μm, 2.0×30 mm, Shimadzu Corporation) at column temperature of 50° C., at flow rate of 0.5 mL/min. The gradient conditions are as follows: 0-1 min, 1% B; 1-1.2 min, 1-55% B; 1.2-2.7 min, 55-75% B; 2.7-3.5 min, 75-99% B; 3.5-6 min, 99% B; 6-8 min, 1% B.
For mass spectrometer, API5000 (AB SCIEX) was used. The eluate from the liquid chromatography was directly ionized by turbospray ionization method, where (5Z,8Z,11Z,14Z)5,8,11,14-eicosatetraenoic acid (AA) and AA-d8 were measured by negative ionization mode, and (5Z,8Z,11Z,14Z)5,8,11,14-eicosatetraenoyl-2-glycerol ester (2-AG) and 2-AG-d8 were measured by positive ionization mode.
A solution for calibration curve was prepared to the concentration of 2, 5, 10, 20, 50, 100, 200, 500, 1000 nmol/mL of acetonitrile. These solutions (10 μL) was mixed with 200 μL of IPA and 5 μL of internal standard solution, and the mixture was centrifuged at 15000 rpm for 5 min, and the supernatant was injected to liquid chromatography mass spectrometer to perform analysis. The calibration curve was drawn by regression line with a weighting of 1/x^2, and the quantitativity was confirmed by accuracy of 100±20% and R^2>0.99.

[3] = test compound 10 μM, His-hMAGL, substrate 2-arachidonylglycerol, 60 min preincubation

Row | Structure (SMILES) | inhibition at 10 µM [1, 3] [%] | also measured
1 | Cc1ccc(COC2CN(C(=O)[C@H]3C[C@]4(COC(=O)N4)C3)C2)cc1Cl [Example 97, (2s,4s)-2-((3-((3-chloro-4-methylbenzyl)oxy)azetidin-1-yl)carbonyl)-7-oxa-5-azaspiro[3.4]octan-6-one] | – | inhibition at 10 µM [1]: 100%; 2-AG concentration [2]: 131.9 nmol/g; arachidonic acid concentration [2]: 60.9 nmol/g; migration into brain [2]: migrated into brain; intracerebral 2-AG concentration compared to control [2]: increased significantly; intracerebral arachidonic acid concentration compared to control [2]: decreased significantly
2 | O=C1N[C@]2(CO1)C[C@H](C(=O)N1CC(OCc3ccc(C(F)(F)F)cc3F)C1)C2 [Example 6, (2s,4s)-2-((3-((2-fluoro-4-(trifluoromethyl)benzyl)oxy)azetidin-1-yl)carbonyl)-7-oxa-5-azaspiro[3.4]octan-6-one] | 100 | 2-AG concentration [2]: 124.5 nmol/g; arachidonic acid concentration [2]: 31.7 nmol/g; migration into brain [2]: migrated into brain; intracerebral 2-AG concentration compared to control [2]: increased significantly; intracerebral arachidonic acid concentration compared to control [2]: decreased significantly
3 | Cc1cc(C(F)(F)F)ccc1COC1CN(C(=O)[C@H]2C[C@]3(COC(=O)N3)C2)C1 [Example 93, (2s,4s)-2-((3-((2-methyl-4-(trifluoromethyl)benzyl)oxy)azetidin-1-yl)carbonyl)-7-oxa-5-azaspiro[3.4]octan-6-one] | 100 | 2-AG concentration [2]: 125.2 nmol/g; arachidonic acid concentration [2]: 42.6 nmol/g; migration into brain [2]: migrated into brain; intracerebral 2-AG concentration compared to control [2]: increased significantly; intracerebral arachidonic acid concentration compared to control [2]: decreased significantly
4 | CC(Oc1ccc(F)c(F)c1F)C1CCN(C(=O)[C@H]2C[C@]3(COC(=O)N3)C2)CC1 (some centres unmarked) [Example 80, (2s,4s)-2-((4-(1-(2,3,4-trifluorophenoxy)ethyl)piperidin-1-yl)carbonyl)-7-oxa-5-azaspiro[3.4]octan-6-one] | 101 | –
5 | CC(Oc1ccc(C(F)(F)F)cc1F)C1CCN(C(=O)[C@H]2C[C@]3(COC(=O)N3)C2)CC1 (some centres unmarked) [Example 35, (2s,4s)-2-((4-(1-(2-fluoro-4-(trifluororoethyl)phenoxy)ethyl)piperidin-1-yl)carbonyl)-7-oxa-5-azaspiro[3.4]octan-6-one] | 101 | –
6 | CC(Oc1ccc(Cl)cc1F)C1CCN(C(=O)[C@H]2C[C@]3(COC(=O)N3)C2)CC1 (some centres unmarked) [Example 18, (2s,4s)-2-((4-(1-(4-chloro-2-fluorophenoxy)ethyl)piperidin-1-yl)carbonyl)-7-oxa-5-azaspiro[3.4]octan-6-one] | 101 | –
7 | O=C1N[C@]2(CO1)C[C@H](C(=O)N1CC(OCc3cc(C(F)(F)F)cc(C(F)(F)F)c3)C1)C2 [Example 113, (2s,4s)-2-((3-((3,5-bis(trifluoromethyl)benzyl)oxy)azetidin-1-yl)carbonyl)-7-oxa-5-azaspiro[3.4]octan-6-one] | 100 | –
8 | Cc1ccc(COCC2CN(C(=O)[C@H]3C[C@]4(COC(=O)N4)C3)C2)cc1Cl [Example 120, (2s,4s)-2-((3-(((3-chloro-4-methylbenzyl)oxy)methyl)azetidin-1-yl)carbonyl)-7-oxa-5-azaspiro[3.4]octan-6-one] | 100 | –
9 | O=C1N[C@]2(CO1)C[C@H](C(=O)N1CCC(C(F)(F)c3ccc(F)cc3Cl)CC1)C2 [Example 112, (2s,4s)-2-((4-((2-chloro-4-fluorophenyl)(difluoro)methyl)piperidin-1-yl)carbonyl)-7-oxa-5-azaspiro[3.4]actan-6-one] | 100 | –
10 | O=C1N[C@]2(CO1)C[C@H](C(=O)N1CC(CC(F)(F)c3ccc(C(F)(F)F)c(Cl)c3)C1)C2 [Example 110, (2s,4s)-2-((3-(2-(3-chloro-4-(trifluoromethyl)phenyl)-2,2-difluoroethyl)azetidin-1-yl)carbonyl)-7-oxa-5-azaspiro[3.4]octan-6-one] | 100 | –
11 | Cc1ccc(OCC2CCN(C(=O)[C@H]3C[C@]4(COC(=O)N4)C3)CC2)c(F)c1 [Example 23, (2s,4s)-2-((4-((2-fluoro-4-methylphenoxy)methyl)piperidin-1-yl)carbonyl)-7-oxa-5-azaspiro[3.4]octan-6-one] | 100 | –
12 | O=C1N[C@]2(CO1)C[C@H](C(=O)N1CC(OCc3ccc(C(F)(F)F)c(Cl)c3F)C1)C2 [Example 102, (2s,4s)-2-((3-((3-chloro-2-fluoro-4-(trifluoromethyl)benzyl)oxy)azetidin-1-yl)carbonyl)-7-oxa-5-azaspiro[3.4]octan-6-one] | 100 | –
13 | CC(Oc1c(F)ccc(F)c1F)C1CCN(C(=O)[C@H]2C[C@]3(COC(=O)N3)C2)CC1 (some centres unmarked) [Example 36, (2s,4s)-2-((4-(1-(2,3,6-trifluorophenoxy)ethyl)piperidin-1-yl)carbonyl)-7-oxa-5-azaspiro[3.4]octan-6-one] | 101 | –
14 | CC1(C2CCN(C(=O)[C@H]3C[C@]4(COC(=O)N4)C3)CC2)Cc2ccc(C(F)(F)F)cc2O1 (some centres unmarked) [Example 63, (2s,4s)-2-((4-(2-methyl-6-(trifluoromethyl)-2,3-dihydro-1-benzofuran-2-yl)piperidin-1-yl)carbonyl)-7-oxa-5-azaspiro[3.4]octan-6-one] | 100 | –
15 | O=C1N[C@]2(CO1)C[C@H](C(=O)N1CC(CC(F)(F)c3ccc(C(F)(F)F)cc3Cl)C1)C2 [Example 117, (2s,4s)-2-((3-(2-(2-chloro-4-(trifluoromethyl)phenyl)-2,2-difluoroethyl)azetidin-1-yl)carbonyl)-7-oxa-5-azaspiro[3.4]octan-6-one] | 100 | –
16 | Cc1cc(COCC2CN(C(=O)[C@H]3C[C@]4(COC(=O)N4)C3)C2)ccc1Cl [Example 121, (2s,4s)-2-((3-(((4-chloro-3-methylbenzyl)oxy)methyl)azetidin-1-yl)carbonyl)-7-oxa-5-azaspiro[3.4]octan-6-one] | 101 | –
17 | CC1(C2CCN(C(=O)[C@H]3C[C@]4(CCC(=O)N4)C3)CC2)Cc2cc(F)ccc2O1 (some centres unmarked) [Example 5, (2r,4s)-2-((4-(5-fluoro-2-methyl-2,3-dihydro-1-benzofuran-2-yl)piperidin-1-yl)carbonyl)-5-azaspiro[3.4]octan-6-one] | 100 | –
18 | O=C1N[C@]2(CO1)C[C@H](C(=O)N1CCC(COc3ccc(CCF)cc3F)CC1)C2 [Example 64, (2s,4s)-2-((4-((2-fluoro-4-(2-fluoroethyl)phenoxy)methyl)piperidin-1-yl)carbonyl)-7-oxa-5-azaspiro[3.4]octan-6-one] | 101 | –
19 | O=C1N[C@]2(CO1)C[C@H](C(=O)N1CCC3(CC1)CC(Oc1ccc(F)cc1Cl)C3)C2 [Example 62, (2s,4s)-2-((2-(2-chloro-4-fluorophenoxy)-7-azaspiro[3.5]non-7-yl)carbonyl)-7-oxa-5-azaspiro[3.4]octan-6-one] | 100 | –
20 | CC1(C2CCN(C(=O)[C@H]3C[C@]4(COC(=O)N4)C3)CC2)Cc2cc(C(F)(F)F)ccc2O1 (some centres unmarked) [Example 53, (2s,4s)-2-((4-(2-methyl-5-(trifluoromethyl)-2,3-dihydro-1-benzofuran-2-yl)piperidin-1-yl)carbonyl)-7-oxa-5-azaspiro[3.4]octan-6-one] | 101 | –
